Where a name gives a salt, the structure may show the parent alone. Read-outs that look alike come from different tables or passages of the source.
Experiments:
[1] = test system: Colletotrichum orbiculare; assay: Fungicidal (bactericidal) activity in vitro, PDA colony diameter; type: cell-based; details: 50 mg/kg
cotton bollworms = assay: whole plant or invertebrate
Description: Experimental method of cotton bollworms: feed and drug mixing method: measure 3 mL of prepared solution and add it to about 27 g of newly prepared feed, thereby obtaining needed concentration through dilution by 10 times.

potato late blight = assay: microbe, parasite or virus in culture; type: cell-based
Fusarium fujikuroi = assay: Fungicidal (bactericidal) activity in vitro, PDA colony diameter; type: cell-based
cucumber fusarium wilt = assay: as above; type: cell-based; details: 50 mg/kg
Sclerotinia scleotiorum = assay: as above; type: cell-based; details: 50 mg/kg
Phytophthora capsici = assay: as above; type: cell-based; details: 50 mg/kg
mosquito larvae = assay: whole plant or invertebrate
Description: Experimental method of mosquito larvae: culex pipiens pallens, a normal colony raised indoors. Weigh about 5 mg of the compound for test, put it in a penicillin vial, add 5 mL of acetone (or an appropriate solvent), and shake and dissolve it to obtain a 1000 ppm mother solution. Pipette 0.5 mL of the mother solution, add it to a 100 mL beaker filled with 89.9 mL of water, select 10 mosquito larvae at the beginning of the fourth instar, and pour them to a beaker together with 10 mL of feeding solution. The concentration of the drug solution is 5 ppm. […] Use an aqueous solution containing 0.5 mL of test solvent as a blank.

Fusarium graminearumt = assay: microbe, parasite or virus in culture; type: cell-based; details: 50 mg/kg
Rhizoctonia solani = assay: Fungicidal (bactericidal) activity in vitro, PDA colony diameter; type: cell-based; details: 50 mg/kg
Cercospora arachidicola = assay: as above; type: cell-based
armyworms = type: in vivo; details: concentration 600 mg/kg
Macrophoma kawatsukai = assay: Fungicidal (bactericidal) activity in vitro, PDA colony diameter; type: cell-based; details: 50 mg/kg
[2] = test system: tobacco mosaic virus (TMV); assay: Anti-TMV in vivo therapeutic effect; set-up: species or system tobacco mosaic virus (host Nicotiana tabacum L.cv.Xanthi NN)
[3] = test system: tobacco mosaic virus (TMV); assay: Anti-TMV in vivo protective effect; set-up: species or system tobacco mosaic virus (host Nicotiana tabacum L.cv.Xanthi NN)
Bipolaria maydis = assay: organism not typed; type: cell-based; details: 50 mg/kg
Alternaria solani = assay: Fungicidal (bactericidal) activity in vitro, PDA colony diameter; type: cell-based; details: 50 mg/kg
Botrytis cinerea = assay: as above; type: cell-based; details: 50 mg/kg
Rhizoctonia cereali = assay: as above; type: cell-based; details: 50 mg/kg
[4] = test system: tobacco mosaic virus (TMV); assay: Anti-TMV in vitro effect (half-leaf soaking); type: cell-based, tobacco mosaic virus (host Nicotiana tabacum L.cv.Xanthi NN)
[5] = test system: tobacco mosaic virus (TMV); assay: Anti-TMV in vivo inactivation; set-up: species or system tobacco mosaic virus (host Nicotiana tabacum L.cv.Xanthi NN)

SMILES | Bactericidal activity (%) Colletotrichum orbiculare [1] | Bactericidal activity (%) Cucumber fusarium wilt (cucumber fusarium wilt) | Bactericidal activity (%) Sclerotinia scleotiorum (Sclerotinia scleotiorum) | Bactericidal activity (%) Phytophthora capsici (Phytophthora capsici) | Bactericidal activity (%) Fusarium graminearumt (Fusarium graminearumt) | Bactericidal activity (%) Rhizoctonia solani (Rhizoctonia solani) | Armyworm Mortality (%) (armyworms) | Bactericidal activity (%) Macrophoma kawatsukai (Macrophoma kawatsukai) | Relative inhibition rate (%) In vivo therapy ([2]; treatment dose 100 μg/mL) | Relative inhibition rate (%) In vivo therapy ([2]; treatment dose 500 μg/mL) | Relative inhibition rate (%) In vivo protection ([3]; treatment dose 100 μg/mL) | Relative inhibition rate (%) In vivo protection ([3]; treatment dose 500 μg/mL) | Bactericidal activity (%) Bipolaria maydis (Bipolaria maydis) | Bactericidal activity (%) Alternaria solani (Alternaria solani) | Bactericidal activity (%) Botrytis cinerea (Botrytis cinerea) | Bactericidal activity (%) Rhizoctonia cereali (Rhizoctonia cereali) | Relative inhibition rate (%) In vitro activity ([4]; treatment dose 100 μg/mL) | Relative inhibition rate (%) In vitro activity ([4]; treatment dose 500 μg/mL) | Relative inhibition rate (%) In vivo inactivation ([5]; treatment dose 100 μg/mL) | Relative inhibition rate (%) In vivo inactivation ([5]; treatment dose 500 μg/mL) | other results
CC(=O)Oc1ccc2c(c1)[nH]c1c(C)nccc12 [Ia-7, Acetate (1-methylpyridino [3,4-b]indol-7)-ester] | 33.3% | 14.3% | 76.0% | 18.2% | 35.7% | 0.0% | 35% | 5.9% | 0% | 24.1% | 0% | 27.2% | 21.1% | 33.3% | 36.4% | 62.5% | 0% | 30% | 0% | 20.3% | Cotton bollworm Mortality (%) (cotton bollworms; concentration 600 mg/kg): 30%; Bactericidal activity (%) potato late blight (potato late blight; 50 mg/kg): 20.0%; Bactericidal activity (%) Fusarium fujikuroi (Fusarium fujikuroi): 35.7%; Mosquito larvae Mortality (%) (mosquito larvae; concentration 10 mg/kg, 24 h): 65%; Bactericidal activity (%) Cercospora arachidicola (Cercospora arachidicola): 35.7%; Corn borer Mortality (%) (corn borers; concentration 600 mg/kg): 25%
CCOC(=O)c1cc2c([nH]c3ccccc32)c(C)n1 [Ia-10, 1-methyl-pyridino [3,4-b] indol-3-ethyl formate] | 47.6% | 23.8% | 68.0% | 51.5% | 71.4% | 39.3% | 30% | 52.9% | 0% | 28.8% | 0% | 23.7% | 36.8% | 61.1% | 13.6% | 78.1% | 0% | 33.3% | 0% | 26.3% | Cotton bollworm Mortality (%) (cotton bollworms; concentration 600 mg/kg): 40%; Bactericidal activity (%) potato late blight (potato late blight; 50 mg/kg): 35.0%; Bactericidal activity (%) Fusarium fujikuroi (Fusarium fujikuroi; 50 mg/kg): 35.7%; Mosquito larvae Mortality (%) (mosquito larvae; concentration 10 mg/kg, 24 h): 65%; Bactericidal activity (%) Cercospora arachidicola (Cercospora arachidicola; 50 mg/kg): 35.7%; Corn borer Mortality (%) (corn borers; concentration 600 mg/kg): 30%
Cc1nc(/C=C/C(=O)O)cc2c1[nH]c1ccccc12 [Ia-14, (E)-3-(1-methyl-pyridino [3,4-b]indol-3)-acrylic acid] | 25.0% | 23.1% | 9.8% | 18.8% | 14.3% | 39.5% | 25% | 47.6% | 0% | 21.5% | 0% | 28.4% | 22.7% | 10.5% | 12.1% | 63.2% | 0% | 25.8% | 0% | 18.4% | Cotton bollworm Mortality (%) (cotton bollworms; concentration 600 mg/kg): 30%; Bactericidal activity (%) potato late blight (potato late blight): 22.7%; Bactericidal activity (%) Fusarium fujikuroi (Fusarium fujikuroi; 50 mg/kg): 28.6%; Mosquito larvae Mortality (%) (mosquito larvae; concentration 10 mg/kg, 24 h): 35%; Bactericidal activity (%) Cercospora arachidicola (Cercospora arachidicola; 50 mg/kg): 84.6%; Corn borer Mortality (%) (corn borers; concentration 600 mg/kg): 20%
O=C(O)/C=C/c1cc2c([nH]c3ccccc32)c(-c2cccs2)n1 [Ia-15, (E)-3-(1-(thiophene-2)-pyridino [3,4-b]indol-3)-acrylic acid] | 66.7% | 33.3% | 76.0% | 66.7% | 78.6% | 17.9% | 15% | 58.8% | 10% | 36.2% | 10.2% | 35.1% | 73.7% | 22.2% | 68.2% | 81.3% | 0% | 40.2% | 13.5% | 39.6% | Cotton bollworm Mortality (%) (cotton bollworms; concentration 600 mg/kg): 15%; Bactericidal activity (%) potato late blight (potato late blight): 55.0%; Bactericidal activity (%) Fusarium fujikuroi (Fusarium fujikuroi; 50 mg/kg): 64.3%; Mosquito larvae Mortality (%) (mosquito larvae; concentration 10 mg/kg, 24 h): 35%; Bactericidal activity (%) Cercospora arachidicola (Cercospora arachidicola; 50 mg/kg): 21.4%; Corn borer Mortality (%) (corn borers; concentration 600 mg/kg): 5%
O=C(O)/C=C/c1cc2c([nH]c3ccccc32)c(-c2cccnc2)n1 [Ia-16, (E)-3-(1-(pyridine-3)-pyridino [3,4-b]indol-3)-acrylic acid] | 23.8% | 4.8% | 76.0% | 9.1% | 42.9% | 0.0% | 10% | 23.5% | 0% | 20.2% | 0% | 21.3% | 15.8% | 22.2% | 4.6% | 53.1% | 0% | 17.8% | 0% | 26.5% | Cotton bollworm Mortality (%) (cotton bollworms; in vivo): 5%; Bactericidal activity (%) potato late blight (potato late blight): 15.0%; Bactericidal activity (%) Fusarium fujikuroi (Fusarium fujikuroi; 50 mg/kg): 28.6%; Mosquito larvae Mortality (%) (mosquito larvae; in vivo): 20%; Bactericidal activity (%) Cercospora arachidicola (Cercospora arachidicola; 50 mg/kg): 0.0%; Corn borer Mortality (%) (corn borers; in vivo): 10%
CCOC(=O)[C@@H]1Cc2c([nH]c3ccccc23)CN1 [Ib-7, (S)-2,3,4,9-tetrahydropyridino [3,4-b] indol-3-ethyl formate] | 47.6% | 33.3% | 60.0% | 66.7% | 42.9% | 42.9% | 5% | 64.7% | 15.9% | 30.7% | 16.2% | 40.1% | 42.1% | 50.0% | 50.0% | 78.1% | 12.3% | 26.9% | 19.3% | 36.5% | Cotton bollworm Mortality (%) (cotton bollworms; concentration 600 mg/kg): 20%; Bactericidal activity (%) potato late blight (potato late blight): 40.0%; Bactericidal activity (%) Fusarium fujikuroi (Fusarium fujikuroi; 50 mg/kg): 64.3%; Mosquito larvae Mortality (%) (mosquito larvae; concentration 10 mg/kg, 24 h): 15%; Bactericidal activity (%) Cercospora arachidicola (Cercospora arachidicola; 50 mg/kg): 42.9%; Corn borer Mortality (%) (corn borers; concentration 600 mg/kg): 5%

— patent publication US10208033B2, “β-carboline, dihydro-β-carboline and tetrahydro-β-carboline alkaloid derivatives and preparation methods same and use in aspects of preventing and treating plant viruses, fungicides and insecticides” (NANKAI UNIVERSITY, priority 2013, dated 2019)
